{"source": "patent EP4180035A1", "about": "“NOVEL BETA-LACTONE INHIBITORS OF HYDROLYTIC ENZYMES AND THEIR MEDICAL AND NON MEDICAL USES” (Max-Planck-Gesellschaft zur Förderung der Wissenschaften …, priority 2021, dated 2023)", "format_in_all_cases": "biochemical", "key": {"[1]": {"target": "T1, β1 subunit of the yeast 20S proteasome (Saccharomyces cerevisiae, UniProt P38624)", "T1 construct": "purified yeast 20S proteasome core particle (yCP); host or cells: yeast", "assay": "IC50 determination with purified yeast 20S proteasome core particle (yCP), caspase-like activity, fluorogenic AMC substrate", "details": "yCP 0.05 mg/mL, 100 mM Tris-HCl pH 7.5; 45 min incubation at room temperature; fluorogenic substrate 200 µM, caspase-like (C-L); read-out: binding affinities for β1", "protocol": "(§1) The concentration of purified yCP was determined spectrophotometrically at 280 nm. yCP (final concentration: 0.05 mg/mL in 100 mM Tris-HCI, pH 7.5) was mixed with DMSO as a control or serial dilutions of the compound 1 in DMSO, thereby not surpassing a final concentration of 10% (v/v) DMSO. After an incubation time of 45 min at room temperature, fluorogenic substrates Boc-Leu-Arg-Arg-AMC, Z-Leu-Leu-Glu-AMC, and Suc-Leu-Leu-Val-Tyr-AMC (final concentration of 200 µM) were added to measure the residual activity of […], and chymotrypsin-like (ChT-L, β5 subunit), respectively. The assay mixture was incubated for another 60 min at RT and afterward diluted 1:10 in 20 mM Tris-HCI, pH 7.5. The AMC-molecules released by hydrolysis were measured in triplicate with a Varian Cary Eclipse Fluorescence Spectrophotometer (Agilent Technologies) at λexc = 360 nm and λem = 460 nm. Relative fluorescence units were normalized to the DMSO treated control. The calculated residual activities were plotted against the logarithm of the applied inhibitor concentration and fitted with GraphPad Prism 9. Half maximum inhibitory concentration (IC50) values were deduced from the fitted data."}, "[2]": {"target": "T2, β2 subunit of the yeast 20S proteasome (Saccharomyces cerevisiae, UniProt P25043)", "T2 construct": "purified yeast 20S proteasome core particle (yCP); host or cells: yeast", "assay": "IC50 determination with purified yeast 20S proteasome core particle (yCP), trypsin-like activity, fluorogenic AMC substrate", "details": "yCP 0.05 mg/mL, 100 mM Tris-HCl pH 7.5; 45 min incubation at room temperature; fluorogenic substrate 200 µM, trypsin-like (T-L); read-out: binding affinities for β2", "protocol": "as §1"}, "[3]": {"target": "T3, β5 subunit of the yeast 20S proteasome (Saccharomyces cerevisiae, UniProt P30656)", "T3 construct": "purified yeast 20S proteasome core particle (yCP); host or cells: yeast", "assay": "IC50 determination with purified yeast 20S proteasome core particle (yCP), chymotrypsin-like activity, fluorogenic AMC substrate", "details": "yCP 0.05 mg/mL, 100 mM Tris-HCl pH 7.5; 45 min incubation at room temperature; Suc-Leu-Leu-Val-Tyr-AMC 200 µM (ChT-L); triplicate", "protocol": "as §1"}}}
{"smiles": "CC(C)C1C(=O)OC1C(=O)O", "note": "(stereo not drawn) [Compound 1, 3-isopropyl-4-oxo-2-oxetanecarboxylic acid]", "values": [{"measurement": "IC50", "setting": "[1]", "result": 625, "unit": "µM"}, {"measurement": "IC50", "setting": "[2]", "result": 60, "unit": "µM"}, {"measurement": "IC50", "setting": "[3]", "result": 6.2, "unit": "µM"}]}
